Measured values from US20080293571A1, “Insecticide organic fertilizer composition, process and method” (priority 2007, published 2008).

Experiment: Biodegradation of rotenone after the composition is poured onto soil
Conditions: rotenone in the composition

## C=C(C)[C@H]1Cc2c(ccc3c2O[C@@H]2COc4cc(OC)c(OC)cc4[C@@H]2C3=O)O1 [rotenone]
  Time until substantially biodegraded after pouring or drenching the nest: approximately 3 days
Stable in liquid form in the container
  Time until biodegrading after pouring the solution onto the soil: 2 to 5 days
